One test deals with bone resorption. The settings on record: both in vitro and in vivo; cited from earlier work.
For a further test, the system named is serum nanobacteria. Nature of the test: Antibiotic sensitivity test of serum nanobacteria (cell culture antibiotics). It is filed as cell-based. The conditions noted are these: 100 μg/ml, cultured one month in medium containing 10% fetal bovine serum. The procedure: Nanobacteria were cultured with 10% fetal bovine serum in DMEM medium (serum nanobacteria) for one month at 37° C. in an atmosphere of 5% CO2-95% air. The cultures were harvested by centrifugation. For the autoclaving, UV, microwave, heating and drying treatments, the harvested nanobacteria were suspended in phosphate buffered saline (pH 7.4; PBS). After treatments, subculturing of the nanobacteria was made in 10% gamma irradiated fetal bovine serum in DMEM medium. The growth of serum nanobacteria was followed by light microscopy and absorbance measurement with a spectrophotometer at 650 nm.
The 1× concentrations are those recommended for cell culture. After 10 days culture in 10% serum containing DMEM with the antibiotic, growth was compared to that of nanobacteria cultures without antibiotics present.

The subject of another test is nanobacteria. Nature of the test: Antibiotic susceptibility of nanobacteria, Minimal Inhibition Concentration (MIC) in 96-well plates. It is filed as cell-based. The procedure:
Antibiotic sensitivity tests were carried out by measuring Minimal Inhibition Concentration (MIC), a common practice in clinical microbiology.
The tests were performed in 96-well plates. DMEM (commercial cell culture medium) containing 10% gamma-irradiated fetal bovine serum (FBS)(dose about 3 Mrads; this treatment inactivates nanobacteria in the serum so that the basic medium is sterile) was used as the basic culture medium. These components are commercially available, e.g., from Gibco. The antibiotic stock solutions were sterile filtered through 0.2 micrometer filters. The stock solutions were then serially diluted (into the basal culture medium) to provide a final starting concentration of 0.5 mg/ml and 1:2 dilutions therefrom, unless otherwise specified. For each antibiotic three parallel tests were performed using all the antibiotic dilutions and, additionally, positive and negative control experiments. […] 100 μl of dilutions of the nanobacteria inoculum were added to all wells except the negative controls. The plates were incubated at mammalian cell culture conditions (37° Celsius, 5% carbon dioxide, 95% humid air). The absorbance values at 650 nm were recorded by using an ELISA reader at the start, and at 4, 8, 12, 14 days. […] Calculations were based on absorbance curves where absorbance was plotted against concentration of the antibiotic.

The text below walks through data of patent publication US20050036904A1, “Methods for eradication of nanobacteria” (priority 1998, published 2005).

`NCCCC(O)(P(=O)(O)O)P(=O)(O)O` [alendronate]: the “Potency relative to etidronate” value with bone resorption is listed as “approximately 700 fold”. Consider Gentamycin, for which, in the test on serum nanobacteria, the “Morphology of nanobacteria in SEM” value is listed as “changes in the morphology”. The “Kind of antinanobacterial effect in the in vitro test (in words)” value in the test on nanobacteria was “bacteriostatic effects at high antibiotic concentrations”.
